Experimental data taken from article PMC3169616, “Unique Residues Involved in Activation of the Multitasking Protease/Chaperone HtrA from Chlamydia trachomatis” (PLoS ONE, 2011).

Experiments:
[1] = test system: CtHtrA R373A; assay: Act1 activation of Bcas1 proteolysis by mutated protein; format: biochemical, Chlamydia trachomatis; details: R373A mutant; Act1 120 µM
Excerpt: (§1) The hexameric CtHtrA molecular model was examined to identify the putative PDZ1 activator binding cleft (Fig. 4). The base of this cleft in CtHtrA is a hydrophobic pocket formed by the residues L302 and I365 (V328 in E. coli DegP) (Fig. 4). L302 and I365 were targeted for site directed mutagenesis (L302N and I365D) to make this non-polar pocket either polar or charged. The role of a potential conformational change caused by movement of the whole PDZ1 domain relative to the protease subunit was also tested by mutating a highly conserved arginine residue (R299W) on the flexible loop between the protease and PDZ domains. This mutation was made in order to alter the flexibility around this residue while occupying a similar sized area. Additionally, a second mutation was made in conjunction with the R299W mutation on the residue R373A which potentially forms a salt bridge between the PDZ domain and protease domain. This double mutation was made in order to reduce the flexibility and disrupt the mobile salt bridge involved in the PDZ1:protease domain interface. The R373A mutation was also made independently of R299W. These mutated proteins were assayed to examine the impact of the changes on Act1 activation on the Bcas1 substrate proteolysis. […]
(§2) The purified recombinant protein was examined by Coomassie stained polyacrylamide gels and activity was checked using ß-casein cleavage assays prior to use in peptide assays. […] Protease assays using pNA labelled peptides were conducted using the xMARK Microplate spectrophotometer (Bio-Rad) at 405 nm, incubated at 37°C, with a reading taken every 10 s for 30 min. The maximum slope over a minimum of 8 readings was used for the data analysis. […] The assays were excited at 340 nm and emission was detected at 405 nm with a gain of 1000, the assays were monitored every 20 s or at the minimum cycle time for up to 40 min. […] The assay results shown for the fluorescent compounds have been normalised for the amount of fluorescent emission detected using a standard curve of known concentrations of the MCA fluorophore under the identical assay conditions. […]

[2] = test system: CtHtrA R299W/R373A; assay: as above; format: biochemical, Chlamydia trachomatis; details: R299W/R373A mutant; Act1 120 µM
Excerpt: as §1, §2

[3] = target: T1, CtHtrA (Chlamydia trachomatis serovar D, UniProt P18584); assay: Oligomerisation assay (glutaraldehyde crosslinking, 3-8% TrisAcetate gel, silver stain); format: biochemical; details: wild type CtHtrA 2 mg/ml, 100 mM sodium phosphate pH 7.0, 10 mins at 37°C, 0.5% glutaraldehyde fixation
T1 construct: His-tag; made in house; host or cells: E. coli BL21 (DE3), plasmid pETHtrA
T1 sequence (P18584 17-497): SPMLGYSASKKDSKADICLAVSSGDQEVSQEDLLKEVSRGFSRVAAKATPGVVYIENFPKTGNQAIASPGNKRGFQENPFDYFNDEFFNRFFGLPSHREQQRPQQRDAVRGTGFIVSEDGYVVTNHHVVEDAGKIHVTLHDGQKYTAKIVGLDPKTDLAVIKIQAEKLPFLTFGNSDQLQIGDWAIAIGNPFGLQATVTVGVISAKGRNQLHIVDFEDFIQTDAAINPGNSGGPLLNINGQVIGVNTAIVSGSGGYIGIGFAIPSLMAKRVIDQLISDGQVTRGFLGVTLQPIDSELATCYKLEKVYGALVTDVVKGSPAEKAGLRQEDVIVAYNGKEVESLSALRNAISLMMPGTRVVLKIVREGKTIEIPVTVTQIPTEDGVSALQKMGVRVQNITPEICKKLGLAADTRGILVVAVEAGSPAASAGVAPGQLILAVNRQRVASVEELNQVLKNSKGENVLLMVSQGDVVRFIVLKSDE
Procedure: E. coli DegP proteolysis activation involves the transition from resting hexamers via trimers to 12- and 24-mers following the peptide activator binding to the PDZ1 binding cleft. CtHtrA oligomer formation induced by Act1 addition was examined after incubation for 10 mins at 37°C. The wild type and mutant proteins were incubated with either the ß-casein based activator peptide (Act1), or with whole insulin (intact), or in the absence of any activator as a control. CtHtrA incubated in the absence of any added activators formed 24-mers with some hexamers detected after 10 mins (Fig. 5). […] The R299W mutant was present as hexamer and 24-mer in the control with no activator. […] The L302N mutant was not detected in any higher oligomeric form under any conditions. L302N was detected as faint hexamer and trimer but mostly monomer under all tested conditions (not visible on these gels). […] I365D was detected as hexamers, trimers, 12-mers, and some 24-mers when incubated in the absence of activators.
The oligomerisation of HtrA into 12- and 24-mer complexes has been independently detected for E. coli HtrA (DegP). The oligomerisation of HtrA (DegP) was triggered by peptides from digested ß-casein [18]. Assays to detect whether CtHtrA and site directed mutant protein oligomerisation was triggered by substrates were conducted essentially as previously described (Merdanovic et al., 2010). Briefly, 2 mg/ml protein solutions in 100 mM sodium phosphate buffer pH 7.0 were pre-incubated to the required temperature. The ligands (activator peptide, or insulin) were added and at 10 min, and the proteins were fixed using 0.5% glutaraldehyde. Samples were fixed at room temperature for 2 min prior to addition of 1 M Tris pH 7.5 to remove any excess glutaraldehyde. Samples were incubated for another 10 min at room temperature prior to addition of SDS PAGE reducing loading buffer. The protein samples were examined on 3–8% TrisAcetate gradient polyacrylamide gels (Novex, Invitrogen) by silver staining. The proteins used in this study were not initially denatured by treatment with urea as, the refolding, formation of oligomers, and protease activity was never successfully detected with denatured CtHtrA. All assays were conducted in duplicate on three separate occasions with at least two gels of each experiment completed for each assay condition.

H-VLGPVRGPFPIIV-OH [Act1]
effect of Act1 on Bcas1 proteolysis rate [1]: failed to increase the proteolysis rate
effect of Act1 on Bcas1 proteolysis rate [2]: failed to increase the proteolysis rate
CtHtrA oligomer formation induced by activator [3]: induced the protein to form 24-mers
